In patent US8980249B2, “Agonists of growth hormone releasing hormone as effectors for survival and proliferation of pancreatic islets” (University of Miami, priority 2010, dated 2015):
Where “and” joins values, the source holds several entries; their conditions need not be identical. Identical values can stand only once. Entries after “also recorded” stand apart in the source; their conditions may differ. Square brackets hold non-standard residues; d marks the D form. Ends that are not written are not given here. * marks the point of attachment. Agmatine = N=C(N)NCCCCN*; Nle = CCCC[C@H](N)C(=O)O; Orn = NCCC[C@H](N)C(=O)O; Abu = CC[C@H](N)C(=O)O

How the values were obtained:
[1] = system: myocardial infarction (MI); settings: in vivo; cited from earlier work
isolated rat islets [2] = assay: Immunostaining of islets for insulin and Ki-67; type: cell-based; settings: 72 hrs in culture with JI-36
[3] = system: streptozotocin-induced diabetic NOD-SCID mice; assay: Intraperitoneal glucose tolerance test after islet transplantation; type: in vivo
Experimental: Mice were fasted overnight (at least 6 hrs) before examination. A glucose solution was given at 3 g/kg BW i.p. and blood glucose was recorded before injection and 15, 30, 45, 60, 90 and 120 min following glucose injection. Non-transplanted mice were used as controls and tested concurrently.

INS-1 cells [4] = assay: Cell proliferation of INS-1 insulinoma cells; type: cell-based, rat
Experimental: (§1) Rat insulinoma cells (INS-1) were cultured in RPMI 1640 medium (PAA, Pasching, Austria) supplemented with 2 mM L-glutamine, 10% fetal bovine serum (FBS), 1 mM Na-pyruvate, 50 μM 2-mercaptoethanol and 100 U/ml penicillin-streptomycin (Gibco, Gaithersburg Md.) in a humidified 5% CO2/[…] atmosphere at 37° C. The culture medium was changed every other day. Cells were grown for 72 hrs prior to experimentation. GHRH agonist JI-36 (10^−6-10^−9 M) and GHRH antagonist MIA-602 ([…]) were used for 24-96 hrs, respectively.
(§2) INS-1 cells were grown for 72 hrs prior to experimentation; islets were collected immediately after the isolation procedure and each were divided into three treatment groups: (1) Culture media with vehicle (DMSO) served as control group, (2) Culture media containing GHRH agonist JI-36 (10^−6 M), (3) culture media with JI-36 plus GHRH antagonist MIA-602 (10^−6 M). Media change and addition of the analogues was performed after 24 hrs and 48 hrs in islet cultures and every other day in INS-1 cell cultures.

INS-1 cells [5] = assay: Cell apoptosis of INS-1 cells (activity of caspases 3 and 7); type: cell-based, rat
Experimental: as §1, §2

rat islets [6] = assay: Islet membrane integrity, FDA/PI viability staining; type: cell-based; settings: 72 hrs in culture, n=4
Experimental: Small aliquots of islets were transferred in phosphate-buffered saline (PBS) containing Petri dishes. Fluorescein diacetate (FDA) and propidium iodide (PI) were added to the samples at a final concentration of 0.5 and 75 μM, respectively. Using a fluorescence microscope, 100 islets were assessed for cell viability by estimating the percentage of viable cells (green) versus percentage of non-viable cells (red) within each islet. The percentage of viable cells was then calculated (33).

rat islets [7] = assay: Static glucose-stimulated insulin secretion; type: cell-based
Experimental: For static insulin secretion in response to glucose challenge, islets were transferred into Petri dishes containing oxygenated Krebs-Ringer bicarbonate buffer (KRB, 137 mM NaCl, 4.7 mM KCl, 1.2 mM KH2PO4, 1.2 mM MgSO4-7H2O, 2.5 mM CaCl2-2H2O, 25 mM NaHCO3, 0.25% BSA) and pre-incubated in 3.3 mM glucose at 37° C. (5% CO2) for 30 min. Groups of 8-10 islets from the equilibration cultures were transferred to fresh oxygen-saturated media containing either 3.3 or 16.7 mM glucose and then incubated an additional 60 min in a 37° C. water bath with gentle shaking. Secreted insulin in the media was measured by ELISA (Millipore, Billerica, Mass.) and values normalized to extracted islet DNA (Quant-iT™ Picogreen, Invitrogen).

[8] = system: streptozotocin-induced diabetic NOD-SCID mice; assay: Transplantation of pretreated rat islets beneath the kidney capsule of diabetic mice; type: in vivo
Experimental: NOD-SCID mice (MTZ breed) with induced diabetes were used as islet recipients following guidelines established by the University of Dresden Institutional Animal Care and Use Committee. Diabetes was induced by a single intraperitoneal injection of 180 mg/kg streptozotocin (Sigma-Aldrich, St. Louis, Mo.). Serum glucose was then measured daily using an Ascensia Elite glucometer (Bayer, Burr Ridge, Ill.). Mice were considered diabetic if non-fasting blood glucose (BG) was >350 mg/dL for two or more consecutive days. Rat islet preparations were used for transplantation. Islets from each preparation were divided into two groups, and JI-36 (10^−6 M) or vehicle (DMSO) was added to the culture media. Islets were cultured for 48 hrs prior to transplantation. After culture, samples of 300 IEQ were washed in transplant media (Ringer acetate with 5% glucose and 10% FBS), and transplanted to beneath the left kidney capsule. The animal experiments and housing were in accordance with institutional guidelines and German animal regulations.
The non-fasting blood glucose levels were measured daily during the first week and twice a week thereafter. On day 25, mice were subjected to an intraperitoneal glucose tolerance test (IPGTT). Two days later, grafts were removed. This led to a recurrence of the diabetic state. This proves that restoration and maintenance of normoglycemia was due to islet graft function.
On follow-up, sustained non-fasting blood glucose levels of ≦10 mM (≦180 mg/dl) were defined as “cure”, 10 to 18 mM (180 to 320 mg/dl) as “partial function” of transplanted islets, and levels above 18 mM (>320 mg/dl) as “graft failure”.

INS-1 cells [9] = assay: Ultrastructural analysis of INS-1 cells; type: cell-based, rat; settings: JI-36 10^−6 M
Experimental: as §2

isolated rat islets [10] = assay: Islet particle number and islet size (islet equivalents) in culture; type: cell-based; settings: rat islets in culture with JI-36 10^−6 M
Experimental: Pancreatic islets were isolated from male Wistar rats according to guidelines established by the University of Dresden Institutional Animal Care and Use Committee. Animals were anesthetized by 3% isoflurane; digestion solution (Collagenase V, Sigma-Aldrich, St. Louis, Mo.) was injected in situ via the pancreatic common bile duct. Islets were purified by centrifugation on a discontinuous Ficoll gradient (Mediatech). Purified islets were maintained in culture media (CMRL 1066, Mediatech, USA) supplemented with 10% FBS at 37° C. in a 5% CO2 incubator. Volume and purity were determined by microscopic sizing after staining with dithizone (Sigma-Aldrich, St. Louis, Mo.).
Triplicate samples of 100 to 300 islet particles were stained with dithizone (Sigma-Aldrich, St. Louis, Mo.), which binds zinc ions present specifically in islet β-cells, and sized using an eyepiece reticle and inverted microscope (32). The term islet particle describes an individual islet independent of its size. All islet particles with a diameter >50 μm were divided into classes of 50 μm increments (i.e., 50-100, 100-150, 150-200, etc.) for calculation of islet equivalents (IEQ). Each diameter class was converted into the mean volume of 150-μm diameter islets by a relative conversion factor. These factors allow converting the total islet particle number from any preparation into IEQ. […]

cardiomyocytes = settings: in vitro; cited from earlier work
rat hearts = settings: cited from earlier work

Substance: (Dat^1, Gln^8, Orn^12,21, Abu^15, Nle^27, Asp^28, Agm^29)hGH-RH(1-29) [JI-38]
- cardiac effect following myocardial infarction [1]: favorable cardiac effect, attenuating infarct size

Substance: (Dat^1, Thr^8, Orn^12,21, Abu^15, Nle^27, Asp^28, Agm^29)hGH-RH(1-29) ([Dat]ADAIFTTSYR[Orn]VL[Abu]QLSAR[Orn]LLQDI[Nle]D[Agmatine]) [JI-36, synthetic GHRH agonist]
- insulin and Ki-67 staining (proliferation in beta cells) (isolated rat islets [2]): co-localization of the two markers
- time to revert initial hyperglycemia to normal ranges in IPGTT ([3]; day 25): ≤ 2 h
- response in IPGTT ([3]; day 25, glucose 3 g/kg i.p.): comparable to that of normal healthy mice
- cell proliferation rates (in words) (INS-1 cells [4]; 10^−6-10^−9 M, 24-96 hrs): significant and dose-dependent increase
- increase in cell proliferation compared to control (INS-1 cells [4]; JI-36 10^−6 M, 72 hrs): 50%
- most effective concentration for cell proliferation (INS-1 cells [4]; tested 10^−6-10^−9 M): 10^−6 M
- degree of cell apoptosis (in words) (INS-1 cells [5]; 10^−6-10^−9 M, 24-96 hrs, INS-1 cells): significant decrease; also recorded: reduction
- reduction of apoptosis (activity of caspases 3 and 7) (INS-1 cells [5]; JI-36 10^−6 M, 72 hrs, INS-1 cells): 20%
- time of maximal anti-apoptotic effect (INS-1 cells [5]; incubation 24-96 hrs): 72 h
- most effective concentration for anti-apoptotic effect (INS-1 cells [5]; tested 10^−6-10^−9 M, INS-1 cells): 10^−6 M
- islet viability (rat islets [6]): 96±3.3%
- insulin release at basal glucose versus control (in words) (rat islets [7]; 3.3 mM glucose): slight increase; also recorded: did not cause a relevant difference
- insulin release at basal glucose (rat islets [7]; 3.3 mM glucose, 1 hr, after 48 hrs exposure, n=5): 2.3 ± 0.5 ng/mL
- insulin release upon glucose stimulation compared to control (in words) (rat islets [7]; 16.7 mM glucose): more than double; also recorded: increased
- insulin release at high glucose (rat islets [7]; 16.7 mM glucose, after 48 hrs exposure, n=5): 8.2 ± 0.2 ng/mL
- insulin release at high glucose relative to basal glucose (rat islets [7]; 16.7 mM vs 3.3 mM glucose): 3.6 fold
- animals cured (stable normoglycemia) ([8]; 300 IEQ islets pretreated with JI-36 10^−6 M 48 hrs, day 25): 5 of 6 and 5 out of 6
- graft integration (insulin immunostaining) ([8]; day 27 after transplantation): stable graft integration
- blood glucose control after transplantation versus untreated islets (in words) ([8]; islets pretreated with JI-36): consistently performed better; also recorded: rapid and persistent recovery from diabetes; also recorded: earlier and more consistently
- animals with partial graft function ([8]; islets pretreated with JI-36, day 25): one
- ultrastructural changes / metabolic state (INS-1 cells [9]): more active metabolic state; also recorded: metabolic active stimulation state with increased cytoplasm
- islet equivalents (IEQ/IP ratio, islet size) versus control (isolated rat islets [10]; 24-72 hrs): increased islet size
- number of islet particles over time versus control (isolated rat islets [10]; up to 72 hrs): no relevant change; also recorded: no difference between treatment group and control

Substance: rat GHRH: rat growth hormone-releasing hormone, cited cardioprotection study (HADAIFTSSYRRILGQLYARKLLHEIMNRQQGERNQEQRSRFN; Somatoliberin; UniProt P09916 31-73, looked up)
- survival of cardiomyocytes (cardiomyocytes): promoted survival
- protection from ischemia-reperfusion injury (rat hearts): protected
